Experiment [1] concerns MRSA9522. The experiment can be described thus: Antibacterial effect, MIC by standard method of Japanese Society of Chemotherapy. It is filed as cell-based, methicillin-resistant Staphylococcus aureus. To be noted: Staphylococcus aureus. The protocol:
(§1) The minimum inhibitory concentrations (MIC: μg/mL) of the compounds set forth in Table 1 were measured according to the standard method of Japanese Society of Chemotherapy (Japanese Journal of Chemotherapy, 56 (1), 49, 2008). […] P. aeruginosa is a clinical isolate given by Kameda Medical Center. C. difficile is a clinical isolate purchased from International Health Management Associates, Inc. (IHMA).

Experiment [2] has as its system MRSA9532. The description is as above. The class given is cell-based, methicillin-resistant Staphylococcus aureus. The conditions noted are these: Staphylococcus aureus. The protocol:
as §1

For experiment [3], the system named is C. difficile 2015-12. Described as above. The class given is cell-based. The conditions noted are these: Clostridioides difficile, 201512; C. difficile 2015-12, clinical isolate. How it is done: as §1
Experiment [4] deals with C. difficile 2015-13. The experiment is described as above. It is filed as cell-based. The conditions noted are these: Clostridioides difficile, 201513; C. difficile 2015-13, clinical isolate. The protocol:
as §1

Experiment [5] relates to P. aeruginosa 2014-16. The experiment is described as above. The class given is cell-based. The conditions noted are these: Pseudomonas aeruginosa, 201416; P. aeruginosa 2014-16, clinical isolate. The protocol: as §1
Experiment [6] relates to P. aeruginosa 08-05. Briefly: Combined antibacterial effect with drug efflux pump inhibitor PAβN, broth microdilution MIC. It is filed as cell-based. The conditions noted are these: for P. aeruginosa 08-05 MIC ratio: P. aeruginosa 08-05, PAβN(−) MIC/PAβN(+) MIC; for MIC value P. aeruginosa 08-05 PAβN +: P. aeruginosa 08-05, with PAβN 50 μg/mL; for MIC value P. aeruginosa 08-05 PAβN −: P. aeruginosa 08-05, without PAβN. The protocol:
(§2) The method used was a broth microdilution method according to the standard method of the Japanese Society of Chemotherapy (Chemotherapy, 38 (1), 102, 1990). In the condition which added H-Phe-Arg-βNA, 2HCl (PAβN) (50 μg/mL) as drug efflux pump inhibitor, the minimum inhibitory concentrations (MIC: μg/mL) was measured. The minimum inhibitory concentrations (MIC: μg/mL) of the conventional antimicrobial agents levofloxacin and cefepime as a positive control compound and a negative control compound for the evaluation were also measured similarly. P. aeruginosa is a clinical isolate given by […] Medical Center.

The subject of experiment [7] is P. aeruginosa 2014-17. Described as above. The class given is cell-based. To be noted: for MIC value P. aeruginosa 2014-17 PAβN +: P. aeruginosa 2014-17, with PAβN 50 μg/mL; for MIC value P. aeruginosa 2014-17 PAβN −: P. aeruginosa 2014-17, without PAβN. The protocol:
as §2

For experiment [8], the system named is P. aeruginosa PA01. The description is as above. The class given is cell-based. To be noted: for MIC value P. aeruginosa PA01 PAβN +: P. aeruginosa PA01, with PAβN 50 μg/mL; for MIC value P. aeruginosa PA01 PAβN −: P. aeruginosa PA01, without PAβN. How it is done:
as §2

Values after ≈ are worked out from the molar mass of the structure shown.

As usually defined, the MIC is the least concentration at which growth counts as inhibited. As to `CNC1CN(c2c(F)c(C)c3c(=O)c(C(=O)O)cn(-c4cc(N)c(F)cc4CO)c3c2Cl)C1` [Example 104, 1-[5-Amino-4-fluoro-2-(hydroxymethyl)phenyl]-8-chloro-6-fluoro-5-methyl-7-(3-methylaminoazetidin-1-yl)-4-oxo-1,4-dihydroquinoline-3-carboxylic acid], 1 µg/mL (≈ 2.09 µM) was the least that counted as inhibitory in experiment [1] (MIC). In experiment [2], this compound showed an MIC of 1 µg/mL (≈ 2.09 µM). Moreover, in experiment [3], inhibition of growth (MIC) required 1 µg/mL (≈ 2.09 µM). Moreover, in experiment [4], inhibition of growth (MIC) required 0.5 µg/mL (≈ 1.04 µM). The compound also came in with an MIC in experiment [5] of 2 µg/mL (≈ 4.18 µM). For the same compound, in experiment [6], the “P. aeruginosa 08-05 MIC ratio” value is recorded as 8, the “MIC value P. aeruginosa 08-05 PAβN +” value worked out at 0.06 µg/mL and the “MIC value P. aeruginosa 08-05 PAβN −” value was found to be 0.5 µg/mL. Also, in experiment [7], the “MIC value P. aeruginosa 2014-17 PAβN +” value is 0.25 µg/mL and the “MIC value P. aeruginosa 2014-17 PAβN −” value stood at 4 µg/mL. For the same compound, in experiment [8], the “MIC value P. aeruginosa PA01 PAβN +” value was found to be 0.016 µg/mL and the “MIC value P. aeruginosa PA01 PAβN −” value worked out at 0.12 µg/mL.

`CNC1CN(c2c(F)cc3c(=O)c(C(=O)O)cn(-c4cc(N)c(F)cc4F)c3c2Cl)C1` [Comparative Compound 2, 1-(5-amino-2,4-difluorophenyl)-8-chloro-6-fluoro-7-(3-methylaminoazetidin-1-yl)-4-oxo-1,4-dihydroquinoline-3-carboxylic acid]: the MIC in experiment [1] was 1 µg/mL (≈ 2.21 µM); in experiment [2], 2 µg/mL (≈ 4.42 µM); in experiment [3], 8 µg/mL (≈ 17.7 µM); in experiment [4] it was 4 µg/mL (≈ 8.83 µM); in experiment [5], 16 µg/mL (≈ 35.3 µM).

As to `Cc1c(F)c(N2CC(O)C2)c(Cl)c2c1c(=O)c(C(=O)O)cn2-c1cc(N)c(F)cc1CO` [Example 113, 1-[5-Amino-4-fluoro-2-(hydroxymethyl)phenyl]-8-chloro-6-fluoro-7-(3-hydroxyazetidin-1-yl)-5-methyl-4-oxo-1,4-dihydroquinoline-3-carboxylic acid], the MIC was 1 µg/mL (≈ 2.15 µM) in experiment [1]; 1 µg/mL (≈ 2.15 µM) in experiment [2]; 0.12 µg/mL (≈ 0.258 µM) in experiment [3]; 0.06 µg/mL (≈ 0.129 µM) in experiment [4]; 4 µg/mL (≈ 8.59 µM) in experiment [5].

In the case of `CNC1CN(c2c(F)cc3c(=O)c(C(=O)O)cn(-c4cc(N)c(F)cc4CO)c3c2C)C1` [Example 70], in experiment [6], the “P. aeruginosa 08-05 MIC ratio” value was 4, the “MIC value P. aeruginosa 08-05 PAβN +” value came to 0.25 µg/mL and the “MIC value P. aeruginosa 08-05 PAβN −” value stood at 1 µg/mL. Moreover, in experiment [7], the “MIC value P. aeruginosa 2014-17 PAβN +” value is 4 µg/mL and the “MIC value P. aeruginosa 2014-17 PAβN −” value was 16 µg/mL. Moreover, in experiment [8], the “MIC value P. aeruginosa PA01 PAβN +” value is 0.25 µg/mL and the “MIC value P. aeruginosa PA01 PAβN −” value stood at 0.25 µg/mL.

On to `Nc1cc(-n2cc(C(=O)O)c(=O)c3cc(F)c(N4CC(N)C4)c(Cl)c32)c(F)cc1F` [Comparative Compound 1, 7-(3-Aminoazetidin-1-yl)-1-(5-amino-2,4-difluorophenyl)-8-chloro-6-fluoro-4-oxo-1,4-dihydroquinoline-3-carboxylic acid], for which the MIC in experiment [1] stood at 4 µg/mL (≈ 9.12 µM); in experiment [2] it was 4 µg/mL (≈ 9.12 µM); in experiment [3] it was 16 µg/mL (≈ 36.5 µM); in experiment [4] it was 8 µg/mL (≈ 18.2 µM); in experiment [5] it was 8 µg/mL (≈ 18.2 µM).

For the compound `CO/N=C(\C(=O)N[C@@H]1C(=O)N2C(C(=O)[O-])=C(C[N+]3(C)CCCC3)CS[C@H]12)c1csc(N)n1` [Cefepime, cefepime, reference compound], in experiment [6], the “P. aeruginosa 08-05 MIC ratio” value was found to be 4, the “MIC value P. aeruginosa 08-05 PAβN +” value came out at 2 µg/mL and the “MIC value P. aeruginosa 08-05 PAβN −” value turned out to be 8 µg/mL. In addition, in experiment [7], the “MIC value P. aeruginosa 2014-17 PAβN +” value amounted to 16 µg/mL and the “MIC value P. aeruginosa 2014-17 PAβN −” value came out at 64 µg/mL. Besides, in experiment [8], the “MIC value P. aeruginosa PA01 PAβN +” value was found to be 0.5 µg/mL and the “MIC value P. aeruginosa PA01 PAβN −” value came out at 1 µg/mL.

The compound `C[C@H]1COc2c(N3CCN(C)CC3)c(F)cc3c(=O)c(C(=O)O)cn1c23` [Levofloxacin, levofloxacin, reference compound] came in with a minimal inhibitory concentration (MIC) in experiment [1] of more than 128 µg/mL. Further, the MIC in experiment [2] is more than 128 µg/mL. In addition, the MIC in experiment [3] is more than 128 µg/mL. In experiment [4], this compound came in with a minimum inhibitory concentration (MIC) of more than 128 µg/mL. For the same compound, the MIC in experiment [5] is more than 128 µg/mL. In experiment [6], the “P. aeruginosa 08-05 MIC ratio” value is 32, the “MIC value P. aeruginosa 08-05 PAβN +” value came out at 0.12 µg/mL and the “MIC value P. aeruginosa 08-05 PAβN −” value worked out at 4 µg/mL. In addition, in experiment [7], the “MIC value P. aeruginosa 2014-17 PAβN +” value came out at 1 µg/mL and the “MIC value P. aeruginosa 2014-17 PAβN −” value amounted to 32 µg/mL. In addition, in experiment [8], the “MIC value P. aeruginosa PA01 PAβN +” value came to 0.06 µg/mL and the “MIC value P. aeruginosa PA01 PAβN −” value was 0.5 µg/mL.

As for `Cc1c(F)c(N2CC(N)C2)c(C)c2c1c(=O)c(C(=O)O)cn2-c1cc(N)c(F)cc1CO` [Example 100, 7-(3-Aminoazetidin-1-yl)-1-[5-amino-4-fluoro-2-(hydroxymethyl)phenyl]-5,8-dimethyl-6-fluoro-4-oxo-1,4-dihydroquinoline-3-carboxylic acid], in experiment [6], the “P. aeruginosa 08-05 MIC ratio” value was found to be 8, the “MIC value P. aeruginosa 08-05 PAβN +” value stood at 0.06 µg/mL and the “MIC value P. aeruginosa 08-05 PAβN −” value turned out to be 0.5 µg/mL. Further, in experiment [7], the “MIC value P. aeruginosa 2014-17 PAβN +” value worked out at 0.25 µg/mL and the “MIC value P. aeruginosa 2014-17 PAβN −” value is 2 µg/mL. In experiment [8], the “MIC value P. aeruginosa PA01 PAβN +” value is 0.016 µg/mL and the “MIC value P. aeruginosa PA01 PAβN −” value came to 0.12 µg/mL.

`O=C(O)c1cn(C2CC2)c2cc(N3CCNCC3)c(F)cc2c1=O` [Ciprofloxacin, ciprofloxacin]: the minimal inhibitory concentration (MIC) in experiment [1] was 128 µg/mL (≈ 386 µM); in experiment [2], more than 128 µg/mL.

The values above are taken from patent US10532984B2, “Pyridonecarboxylic acid derivative or salt thereof” (priority 2016, dated 2020).
